Test results: patent US20260284009A1, “COMPOUNDS FOR NOS-RELATED CANCERS AND METHODS OF USE” (YISSUM RESEARCH DEVELOPMENT COMPANY OF THE HEBREW …, priority 2023, published 2026)

Assays:
[1] = system: U87-MG cells; assay: Clonogenic survival of U87-MG cells; assay type: cell-based, human; conditions: 100 μM 7-NI, 500 or 1000 μM L-NIL, combinations 100 μM 7-NI + 500 or 1000 μM L-NIL
Text: (§1) Data are presented as mean±SEM.
as §1

[2] = system: U87-MG cells; assay: Nitrate and nitrite levels in U87-MG cells; assay type: cell-based, human; conditions: 100 μM 7-NI, 500 or 1000 μM L-NIL, combinations of both, n=3
Description: In FIGS. 10A-10B, data are presented as mean±SEM. Statistical significance was determined using a One-way ANOVA with Bonferroni's multiple comparisons tests. *P<0.05, **P<0.01, and ns=not significant.
FIG. 10A: Quantitative analysis of nitrate and nitrite levels in U87-MG cells following administration of 0.1% DMSO (“Vehicle”) (n=3) or 100 μM 7-NI (“7-NI”) (n=3).
FIG. 10B: Quantitative analysis of nitrate and nitrite levels in U87-MG cells following administration of control (n=3), 500 μM L-NIL (“L-NIL 500”) (n=3), or 1000 μM L-NIL (“L-NIL 1000”) (n=3).
Data are expressed as the mean±SEM.

[3] = system: U87-MG cells; assay: Western blots of 3-Ntyr, CD-70, iNOS and nNOS in U87-MG cells; assay type: cell-based, human; conditions: western blot, 100 μM 7-NI, 500 or 1000 μM L-NIL, n=3
Description: In FIGS. 12A-12D, for quantitative analysis data, all individual data series are presented as biological replicates (n=3) for all groups. Data are expressed as the mean±SEM.
FIG. 12A: Representative western blots of 3-Ntyr and β-actin levels in U87-MG cells following administration of the control, 0.1% DMSO (“Vehicle”), or 100 μM 7-NI (“7-NI”).
FIG. 12B: Quantitative analysis of 3-Ntyr levels for the experiments of FIG. 12A.
FIG. 12C: Representative western blots of 3-Ntyr and β-actin levels in U87-MG cells following administration of the control, 500 μM L-NIL (“L-NIL 500”), or 1000 μM L-NIL (“L-NIL 1000”).
FIG. 12D: Quantitative analysis of 3-Ntyr levels for the experiments of FIG. 12C.
In FIGS. 13A-13B, for quantitative analysis data, all individual data series are presented as biological replicates (n=3) for all groups. Data are expressed as the mean±SEM.
FIG. 13A: Representative western blots of CD-70 and β-actin levels in U87-MG cells following administration of the control, 0.1% DMSO (“Vehicle”), 100 μM 7-NI (“7-NI”), 500 μM L-NIL (“L-NIL 500”), or 1000 μM L-NIL (“L-NIL 1000”).
FIG. 13B: Quantitative analysis of CD-70 levels for the experiments of FIG. 13A.
In FIGS. 14A-14B, for quantitative analysis data, all individual data series are presented as biological replicates (n=3) for all groups. Data are expressed as the mean±SEM.
FIG. 14A: Representative western blots of iNOS and β-actin levels in U87-MG cells following administration of the control, 0.1% DMSO (“Vehicle”), 100 μM 7-NI (“7-NI”), 500 μM L-NIL (“L-NIL 500”), or 1000 μM L-NIL (“L-NIL 1000”).
FIG. 14B: Quantitative analysis of iNOS levels for the experiments of FIG. 14A.
In FIGS. 15A-15B, for quantitative analysis data, all individual data series are presented as biological replicates (n=3) for all groups. Data are expressed as the mean±SEM.
FIG. 15A: Representative western blots of nNOS and β-actin levels in U87-MG cells following administration of the control, 0.1% DMSO (“Vehicle”), 100 μM 7-NI (“7-NI”), 500 μM L-NIL (“L-NIL 500”), or 1000 μM L-NIL (“L-NIL 1000”).
FIG. 15B: Quantitative analysis of nNOS levels for the experiments of FIG. 15A.

[4] = system: U87-MG-xenografted mice; assay: Tumor volume and tumor mass in U87-MG-xenografted mice; assay type: in vivo; conditions: for tumor volume in a subset of mice: subset (top 4-5, smallest tumor volume) of U87-MG-xenografted mice, 10 mg/kg L-NIL or both
Description: In FIGS. 16A-16B, data are expressed as the mean±SEM. Statistical significance was determined using a One-way ANOVA followed by Fisher's LSD multiple comparison post hoc test. **P<0.01, ***P<0.001, ****P<0.0001, and ns=not significant.
FIG. 16A: Temporal tumor volume comparison for U87-MG-xenografted mice receiving treatment with 0.1% DMSO (“vehicle”) (n=10), 80 mg/kg 7-NI (“7-NI”) (n=10), 10 mg/kg L-NIL (“L-NIL”) (n=10), or 80 mg/kg 7-NI and 10 mg/kg L-NIL concurrently administered (“Combo”) (n=15).
FIG. 16B: Quantitative analysis of tumor volume for U87-MG-xenografted mice after 8 days for the experiments of FIG. 16A.
In FIGS. 17A-17B, data are expressed as the mean±SEM. Statistical significance was determined using a One-way ANOVA followed by Fisher's LSD multiple comparison post hoc test. *P<0.05, ****P<0.0001, and ns=not significant.
FIG. 17B: Quantitative analysis of tumor volume after 8 days for the subset of U87-MG-xenografted mice for the experiments of FIG. 17A.
In FIGS. 18A-18B, data are expressed as the mean.
Data are expressed as the mean±SEM. Statistical significance was determined using a One-way ANOVA with Bonferroni's multiple comparisons tests. **P<0.01, ****P<0.0001, ns=not significant.
Data are expressed as the mean±SEM. Statistical significance was determined using a One-way ANOVA with Bonferroni's multiple comparisons tests. *P<0.05, **P<0.01, ***P<0.001, and ****P<0.0001.

[5] = system: U87-MG cells; assay: Nitrite (Griess) assay in U87-MG cells; assay type: cell-based, human
Description: Human glioblastoma U87-MG cells were obtained from the American Type Culture Collection (ATCC) and maintained in Dulbecco's modified Eagle's Medium (DMEM) and Ham's F-12 (1:1) supplemented with 10% fetal bovine serum, 2 mM L-glutamine, and 100 U/ml penicillin-G/[…] streptomycin in the humidified atmosphere (37° C., 5% CO2). Cells were plated onto 25 cm^2 and 75 cm^2 at a density of 7.0×10^5 and 2.1×10^6 cells/cm^2 respectively for Western blotting (WB) and 1×10^5 for immunofluorescence. The U87-MG cells were treated with 100 μM 7-nitroindazole (7-NI) for 24 hr.
In a particular example, in vitro and in vivo experiments were performed using U87-MG cells and U87-MG-xenografted mice, respectively, as a glioblastoma model.

[6] = U87-MG-xenografted mice, 80 mg/kg 7-NI, 10 mg/kg L-NIL or both concurrently, after 8 days, vs vehicle

Row | Structure (SMILES) | clonogenic survival [1] | nitrate and nitrite levels [2] | 3-Ntyr (nitrotyrosine) levels [3] | cluster of differentiation 70 (CD-70) levels [3] | inducible nitric oxide synthase (iNOS) levels [3] | neuronal nitric oxide synthase (nNOS) levels [3] | tumor volume [4, 6] | tumor volume ([4]; U87-MG-xenografted mice, 20, 40 or 80 mg/kg 7-NI intraperitoneal for 14 days, vs vehicle) | tumor mass ([4]; U87-MG-xenografted mice, 20, 40 or 80 mg/kg 7-NI, after 14 days, vs vehicle) | tumor volume in a subset of mice ([4]; 80 mg/kg 7-NI, after 8 days) | nitrite and nitrate content (Griess assay) ([5]; 7-NI) | nitrite and nitrate content (Griess assay) ([5]; higher dose of L-NIL, one experiment (FIG. 10B), vs control) | nitrite and nitrate content (Griess assay) ([5]; higher dose of L-NIL, second experiment (FIG. 11), reduced vs control) | nitrite and nitrate content (Griess assay) ([5]; lower dose of L-NIL, one experiment (FIG. 11), vs control) | nitrite and nitrate content (Griess assay) ([5]; lower dose of L-NIL, second experiment (FIG. 10B), reduced vs control)
1 | O=[N+]([O-])c1cccc2cn[nH]c12 [7-NI, 7-nitroindazole] | significant decrease | significant decrease | significant decrease | did not lead to significant changes | did not lead to significant changes | did not lead to significant changes | significantly smaller | significantly smaller | significantly smaller | significantly smaller | dramatic reduction |  |  |  | 
2 | CC(=N)NCCCC[C@H](N)C(=O)O [L-NIL, N^6-(1-iminoethyl)-L-lysine] | significant decrease | significant decrease | did not result in a significant decrease | did not lead to significant changes | did not lead to significant changes | did not lead to significant changes | significantly smaller |  |  | significantly smaller |  | significantly reduced | not statistically significant | significantly reduced | not statistically significant
